By IC50 is commonly meant the point on the concentration scale where inhibition reaches its midpoint.

The subject of one series is L1210 (murine leukemia). In words: Cytotoxicity, L1210 (murine leukemia). In kind it is cell-based. To be noted: Mus musculus, exposition time 48 h, RPMI 1640 + 20 mM HEPES + 2 mM L-glutamine.
A further series deals with A121 (human ovarian). The series is described as follows: Cytotoxicity, A121 (human ovarian). In kind it is cell-based. Conditions: exposition time 72 h, RPMI 1640 + 20 mM HEPES + 2 mM L-glutamine. The protocol:
(§1) IC50 s of compounds 10, 11and paclitaxel on 6 human
(§2) Standard conditions: basal medium RPMI 1640 + 20 mM HEPES + 2 mM

The next series deals with A549 (human NSCLC). In words: Cytotoxicity, A549 (human NSCLC). In kind it is cell-based. To be noted: exposition time 72 h, RPMI 1640 + 20 mM HEPES + 2 mM L-glutamine. On the procedure: as §1, §2
The test system of the next series is HT-29 (human colon). The series is described as follows: Cytotoxicity, HT-29 (human colon). In kind it is cell-based. To be noted: exposition time 72 h, RPMI 1640 + 20 mM HEPES + 2 mM L-glutamine. On the procedure: as §1, §2
In another series the test system is MCF7 (human breast). In words: Cytotoxicity, MCF7 (human breast). The format is cell-based. To be noted: exposition time 72 h, RPMI 1640 + 20 mM HEPES + 2 mM L-glutamine. The protocol: as §1, §2
For a further series, the system named is MCF7-ADR (resistant). The series is described as follows: cells. In kind it is cell-based. Conditions: Homo sapiens, NCI/ADR-RES, 72 h.
The test system of another series is human tumours. Conditions: background art, cited from earlier work.
A further series in a line: Cardiotoxic activity. Conditions: in words, compared with taxol and its known derivatives.
The test system of the next series is tumours. In words: Anti-tumoral activity (general statement). To be noted: in words, among the compounds of formula 1.

Turning to `CC(=O)O[C@H]1C(=O)[C@@]2(C)[C@H]([C@H](OC(=O)c3ccccc3)[C@]3(O)C[C@H](OC(=O)[C@H](O)[C@@H](NC(=O)c4ccccc4)c4ccccc4)C(C)=C1C3(C)C)[C@]1(OC(C)=O)CO[C@@H]1C[C@@H]2O` [Paclitaxel, reference compound], the concentration for half-maximal inhibition (IC50) in the series with L1210 (murine leukemia) amounted to 7 ± 3 nM; in the series on A121 (human ovarian) it was 3.7 ± 0.3 nM; with A549 (human NSCLC) it was 5.4 ± 0.5 nM; in the series with HT-29 (human colon) it was 6 ± 0.6 nM; in the series with MCF7 (human breast), 4.3 ± 0.1 nM; in the series on MCF7-ADR (resistant) it was 395 ± 8.7 nM. Moreover, the anticancerogenic activity entry in the series on human tumours (different forms of human tumours) is listed as “anticancerogenic activity on different forms of human tumours”. Further, the resistance induction entry in the series on human tumours is “induces resistance quickly”. Further, the “side-effects in clinical use” value in the series with human tumours is “serious side-effects”. Moreover, in the series “Cardiotoxic activity”, the cardiotoxic activity result is given as “contrary to taxol”.

As to `CCCCCC(=O)N[C@@H](CC(C)C)[C@@H](O)C(=O)O[C@@H]1C(C)=C2C(=O)C(=O)[C@@]3(C)[C@H]([C@H](OC(=O)c4ccccc4)[C@@]4(OC(=O)O[C@@H]14)C2(C)C)[C@]1(OC(C)=O)CO[C@@H]1C[C@@H]3O` [Compound 12, 13-[(2R,3S)-3-caproylamino-2-hydroxy-3-isobutyl-propanoyl]-10-dehydro-10-deacetyl 14β-hydroxy-baccatine III 1,14-carbonate], the activity entry with tumours is recorded as “particularly active”.

Turning to `CC(=O)O[C@@]12CO[C@@H]1C[C@H](O)[C@@]1(C)C(=O)C(=O)C3=C(C)[C@@H](OC(=O)[C@H](O)[C@H](CC(C)C)NC(=O)OC(C)(C)C)C[C@@](O)([C@@H](OC(=O)c4ccccc4)[C@H]21)C3(C)C` [Compound 10, 13-[(2R,3S)-3-ter-butoxycarbonylamino-2-hydroxy3-isobutyl-propanoyl]-10-deacetyl-10-dehydro-baccatine III], the IC50 in the series on L1210 (murine leukemia) is 0.6 ± 0.1 nM; in the series on A121 (human ovarian) it was 0.8 ± 0.3 nM; in the series on A549 (human NSCLC), 1.9 ± 0.3 nM; with HT-29 (human colon), 0.4 ± 0.1 nM; in the series with MCF7 (human breast), 1.2 ± 0.2 nM. For the same compound, the activity result in the series on tumours was “particularly active”.

In the case of `CC(=O)O[C@@]12CO[C@@H]1C[C@H](O)[C@@]1(C)C(=O)C(=O)C3=C(C)[C@@H](OC(=O)[C@H](O)[C@H](CC(C)C)NC(=O)OC(C)(C)C)[C@@H]4OC(=O)O[C@]4([C@@H](OC(=O)c4ccccc4)[C@H]21)C3(C)C` [Compound 11, 13=[(2R,3S)-3-ter-butoxycarbonylamino-2-hydroxy-3-isobutyl-propanoyl]-10-dehydro-10-deacetyl-14β-hydroxy-baccatine III 1,14-carbonate], the half-maximal inhibitory concentration (IC50) with L1210 (murine leukemia) is 2 ± 0.1 nM; with A121 (human ovarian), 1.6 ± 0.2 nM; with A549 (human NSCLC), 2.1 ± 0.3 nM; in the series with HT-29 (human colon), 0.6 ± 0.4 nM; with MCF7 (human breast), 0.8 ± 0.2 nM. In addition, in the series with tumours, the activity entry is “particularly active”.

The values are drawn from US5750562A (priority 1995, dated 1998).
